For series [1], the system named is plasma lipoprotein lipase. Kind of series: Enhancement of plasma lipoprotein lipase activity in mice. In kind it is in vivo, mice (Balb/c). The following applies: 9 mg/kg via tail vein, 21 hours later. The method, then:
Female mice (Balb/c, 10 weeks old, n=6, i.e. the number in each test group was 6) were injected with 9 mg/kg of the test compound (Compound No. 1-19) via the tail vein. Twenty one hours later, the activities of the plasma lipoprotein lipase were determined according to Vlassara's method. [Horm. Metabol. Res., 18, 698-703(1986)].
Activities of the plasma lipoprotein lipase in control mice receiving physiological saline were expressed as 100 and the relative value is shown in the following Table 5.

Series [2] relates to tumor cells, adenocarcinoma C-12G. Kind of series: Improving cachexia and increasing life-span of tumor bearing mice. It counts as in vivo, mouse (CSF1). The text has this: A mouse cachexia model was made by inoculating 6×10^5 viable tumor cells, adenocarcinoma C-12G, subcutaneously into the right axillary region of a CSF1 mouse (8-9 weeks old, female weighing 21-24 g, n=10). The viable tumor cells were counted under a microscope after staining them with 0.4% of trypan blue (Sigma Co.).
The growth of this kind of tumor, inoculated subcutaneously, causes a marked Weight loss (the weight losses of mice 16-17 days after tumor inoculation were (4.0-4.5 g), piloerection and depression of emotion and finally death.
Compound No. 1-19 (hereafter called the test compound) was suspended in saline containing 0.5% CMC (carboxymethyl cellulose) at a concentration of 4 mg/ml. The suspension was administrated orally to mice on days 1-4, 7-11, 14-24 (20 times in total) after the tumor inoculation. The status of the mice, such as weight loss. Piloerection, depression of emotion and increase in life-span, was observed.
On the other hand, for a control group of mice, saline solution containing 0.5% of CMC was given orally.
In the above, the median survival times were measured in days.

Series [3] is described as follows: Acute toxicity in rats, subcutaneous injection. The note with it: rat, in vivo, sc. The text has this: (§1) All of the compounds of formula (I) employed in the present invention have shown low toxicity and high safety, with limited side effects.
Series [4] can be described thus: Acute toxicity in mice, intraperitoneal injection. The following applies: mouse, in vivo, ip.
Excerpt: as §1

Results on 5 compounds are retold here after patent publication US5055479A, “Method of treating cachexia” (Sankyo Company, Limited, priority 1988, dated 1991).

A word on the LD50: it is the dose expected to kill half of the subjects tested. Higher therefore signals a less toxic substance.

`Cc1nc2ncnn2c2c1CCN2C(C)(C)C` [Compound 1-19, 8-t-butyl-7,8-dihydro-5-methyl-6H-pyrrolo[3,2-e][1,2,4]triazolo[1,5-a]pyrimidine]: in series [1] (of that of the control), the “lipoprotein lipase activity relative to control” value was found to be 120%. In addition, the “Relative activity of the lipoprotein lipase” value in series [1] (saline control = 100, n = 6, mean ± standard deviation, p<0.05 vs saline) stood at 120 ± 10.6. Further, the “Median Survival time” value in series [2] (40 mg/kg/day orally, days 1-4, 7-11, 14-24, control 28.0) came out at 40.5 days. Also, in series [2] (40 mg/kg/day orally, days 1-4, 7-11, 14-24, vs control), the “Increase in life-span (ILS)” value turned out to be 45%. Besides, the “status of the mice (weight, hair retention and emotion)” value in series [2] (oral administration, 20 times in total) was “extensive improvements in weight, hair retention and emotion”. The same compound came in with an LD50 in series [3] of at least 100 mg/kg.
In the case of `Cc1ccc(CN2CCc3c(C)nc4ncnn4c32)cc1` [Compound 1-48, 7,8-dihydro-5-methyl-8-(4-methylbenzyl)-6H-pyrrolo[3,2-e][1,2,4]triazolo[1,5-a]pyrimidine], the LD50 in series [4] was at least 300 mg/kg.
Regarding `COc1ccc(CN2CCc3c(C)nc4ncnn4c32)cc1` [Compound 1-49, 7,8-dihydro-8-(4-methoxybenzyl)-5-methyl-6H-pyrrolo[3,2-e][1,2,4]triazolo[1,5-a]pyrimidine], in series [4], the LD50 is at least 300 mg/kg.
Regarding `Cc1nc2ncnn2c2c1CCN2Cc1ccc(Cl)cc1` [Compound 1-54, 8-(4-chlorobenzyl)-7,8-dihydro-5-methyl-6H-pyrrolo[3,2-e][1,2,4]triazolo[1,5-a]pyrimidine], the 50% lethal dose (LD50) in series [4] is at least 300 mg/kg.
The same measure, in the same setting: the same measure for `Cc1nc2ccnn2c2c1CCN2Cc1ccccc1` [Compound 2-2, 8-benzyl-7,8-dihydro-5-methyl-6H-pyrazolo[1,5-a]pyrrolo[3,2-e]pyrimidine]: at least 300 mg/kg.
